Structures can show the parent of a compound that is named as a salt. Where two headings read alike, the source gives them in different places.
Assays:
[1] = Transdermal flux test of topical patch formulations (Franz cell); format: in vitro ADME
From the text: Human cadaver skin was used and epidermal layers (stratum corneum and epidermis) were separated from the full-thickness skin as skin membrane. Samples were die-cut with an arch punch to a final diameter of about 2.0 cm^2. The release liner was removed and the drug delivery system was placed on top of the epidermis/stratum corneum with the drug adhesive layer facing the stratum corneum. Gentle pressure was applied to effect good contact between the adhesive layer and stratum corneum. The donor and receptor sides of the Franz cell were clamped together and the receptor solution containing 0.9% sodium chloride, 1% Tween 80 and 0.01% Gentamicin was added to the Franz cell. The cells were kept at 33° C. for the duration of the experiment. Samples of the receptor solution were taken at regular intervals and the active agent concentration was measured by HPLC. The removed receptor solution was replaced with fresh solution to maintain the sink conditions. The flux was calculated from the slope of cumulative amounts of the drug in the receiver compartment versus time plot.

[2] = orally administered fingolimod HCl; cited from earlier work
[3] = Solubility of fingolimod in patch adhesive; format: physicochemical
[4] = Transdermal flux test of fingolimod HCl gel and solutions (Franz cell); format: in vitro ADME, human; conditions: during the first 8 hours of the experiments
Protocol: Human cadaver skin was used and epidermal layers (stratum corneum and epidermis) were separated from the full-thickness skin as skin membrane and placed on top of the Franz cell. The donor compartment chamber and receptor sides of the Franz cell were clamped together. A receptor solution containing 0.9% sodium chloride was added to the cell. Solution samples or gel samples were inserted into the donor compartment chamber on top of the epidermis/stratum corneum. The cells were kept at a temperature of 33° C. during the entire experiment. Samples of the receptor solution were taken at regular intervals and the active agent concentration was measured by HPLC. The removed receptor solution was replaced with fresh solution to maintain the sink conditions. The flux was calculated from the slope of the cumulative amounts of the drug in the receiver compartment versus time.

SMILES: CCCCCCCC/C=C\CCCCCCCC(=O)OCC(O)CO (centres unmarked) [GMO, Glyceryl monooleate]
- effect on the fingolimod flux ([1]; excipient in fingolimod base patches in Duro-Tak 9301, human cadaver skin, FIG. 3): enhancement effect

SMILES: CCCCCCCCCCCCOC(=O)C(C)O (centres unmarked) [LL, Lauryl Lactate]
- effect on the fingolimod flux [1]: enhancement effect

SMILES: CCCCCCCCc1ccc(CCC(N)(CO)CO)cc1 [fingolimod HCl, fingolimod hydrochloride]
- peak to trough fluctuations, non-phosphorylated fingolimod [2]: ≤ 20%
- peak to trough fluctuations, phosphorylated (active) form of fingolimod [2]: ≤ 45%

SMILES: CCCCCCCCc1ccc(CCC(N)(CO)CO)cc1 [fingolimod, 2-amino-2-[2-(4-octylphenyl)ethyl]propane-1,3-diol]
- solubility of fingolimod in adhesive ([3]; Duro-Tak 87-9301 adhesive): less than 1%
- solubility of fingolimod in the adhesive ([3]; PIB adhesive): less than 1%
- solubility of fingolimod in the adhesive ([3]; acrylate polymer adhesive Duro-Tak 900A): less than 1%
- detection of fingolimod in the receptor solutions [4]: not detected
